Measured values reported in patent US10168342B2, “Lipid probes and uses thereof” (THE SCRIPPS RESEARCH INSTITUTE, priority 2015, dated 2019).
Like-named read-outs stand apart in the source and are kept apart here.

Experiments:
[1] = target: T1, AEA-DA lipid probe targets in Neuro2a cells (Mus musculus, UniProt Q8BP40)
T1 sequence (Q8BP40 26-418): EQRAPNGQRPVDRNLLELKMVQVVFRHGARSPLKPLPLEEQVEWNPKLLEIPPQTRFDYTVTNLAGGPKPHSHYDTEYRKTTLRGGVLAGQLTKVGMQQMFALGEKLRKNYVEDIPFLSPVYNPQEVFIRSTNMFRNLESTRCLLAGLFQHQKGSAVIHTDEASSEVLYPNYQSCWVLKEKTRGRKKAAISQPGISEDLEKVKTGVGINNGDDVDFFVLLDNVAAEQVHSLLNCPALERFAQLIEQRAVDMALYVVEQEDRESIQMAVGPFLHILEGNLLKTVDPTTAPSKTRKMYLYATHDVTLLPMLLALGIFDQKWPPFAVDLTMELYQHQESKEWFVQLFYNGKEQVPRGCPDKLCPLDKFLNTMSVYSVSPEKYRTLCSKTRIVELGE

[2] = target: AEA-DA lipid probe targets in Neuro2a cells (Mus musculus, UniProt Q9Z0V7)
Chain of AEA-DA lipid probe targets in Neuro2a cells (Mus musculus, UniProt Q9Z0V7) (Q9Z0V7 whole entry): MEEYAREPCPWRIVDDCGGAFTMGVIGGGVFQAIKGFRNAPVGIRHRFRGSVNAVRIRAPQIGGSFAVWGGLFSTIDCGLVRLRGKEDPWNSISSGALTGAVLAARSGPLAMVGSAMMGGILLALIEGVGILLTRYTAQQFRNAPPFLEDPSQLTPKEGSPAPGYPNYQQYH

[3] = target: T2, AEA-DA lipid probe targets in Neuro2a cells (Mus musculus, UniProt Q9CY50)
T2 sequence (Q9CY50 22-286): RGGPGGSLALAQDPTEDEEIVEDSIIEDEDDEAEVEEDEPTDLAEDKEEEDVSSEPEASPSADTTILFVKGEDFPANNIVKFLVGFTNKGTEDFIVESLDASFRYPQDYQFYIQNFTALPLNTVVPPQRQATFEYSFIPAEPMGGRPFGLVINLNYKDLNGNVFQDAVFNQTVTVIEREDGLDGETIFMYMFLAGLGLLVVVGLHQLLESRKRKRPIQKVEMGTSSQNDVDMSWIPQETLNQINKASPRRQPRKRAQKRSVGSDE

[4] = target: AEA-DA lipid probe targets in Neuro2a cells (Mus musculus, UniProt P60229)
Chain of AEA-DA lipid probe targets in Neuro2a cells (Mus musculus, UniProt P60229) (P60229 whole entry): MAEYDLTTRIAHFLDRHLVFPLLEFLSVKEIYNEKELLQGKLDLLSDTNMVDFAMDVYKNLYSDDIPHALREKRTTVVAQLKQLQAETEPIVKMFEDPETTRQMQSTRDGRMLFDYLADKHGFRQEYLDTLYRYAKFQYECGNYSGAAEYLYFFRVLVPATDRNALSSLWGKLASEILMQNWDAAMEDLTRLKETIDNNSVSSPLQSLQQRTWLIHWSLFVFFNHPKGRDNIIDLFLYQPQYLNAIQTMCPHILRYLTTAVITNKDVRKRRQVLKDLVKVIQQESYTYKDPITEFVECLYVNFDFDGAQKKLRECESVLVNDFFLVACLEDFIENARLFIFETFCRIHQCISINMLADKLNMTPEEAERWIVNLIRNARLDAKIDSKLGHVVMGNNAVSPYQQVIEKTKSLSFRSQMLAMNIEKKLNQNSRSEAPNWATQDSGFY

[5] = target: T3, AEA-DA lipid probe targets in Neuro2a cells (Mus musculus, UniProt Q61595)
T3 sequence (Q61595 1-1327): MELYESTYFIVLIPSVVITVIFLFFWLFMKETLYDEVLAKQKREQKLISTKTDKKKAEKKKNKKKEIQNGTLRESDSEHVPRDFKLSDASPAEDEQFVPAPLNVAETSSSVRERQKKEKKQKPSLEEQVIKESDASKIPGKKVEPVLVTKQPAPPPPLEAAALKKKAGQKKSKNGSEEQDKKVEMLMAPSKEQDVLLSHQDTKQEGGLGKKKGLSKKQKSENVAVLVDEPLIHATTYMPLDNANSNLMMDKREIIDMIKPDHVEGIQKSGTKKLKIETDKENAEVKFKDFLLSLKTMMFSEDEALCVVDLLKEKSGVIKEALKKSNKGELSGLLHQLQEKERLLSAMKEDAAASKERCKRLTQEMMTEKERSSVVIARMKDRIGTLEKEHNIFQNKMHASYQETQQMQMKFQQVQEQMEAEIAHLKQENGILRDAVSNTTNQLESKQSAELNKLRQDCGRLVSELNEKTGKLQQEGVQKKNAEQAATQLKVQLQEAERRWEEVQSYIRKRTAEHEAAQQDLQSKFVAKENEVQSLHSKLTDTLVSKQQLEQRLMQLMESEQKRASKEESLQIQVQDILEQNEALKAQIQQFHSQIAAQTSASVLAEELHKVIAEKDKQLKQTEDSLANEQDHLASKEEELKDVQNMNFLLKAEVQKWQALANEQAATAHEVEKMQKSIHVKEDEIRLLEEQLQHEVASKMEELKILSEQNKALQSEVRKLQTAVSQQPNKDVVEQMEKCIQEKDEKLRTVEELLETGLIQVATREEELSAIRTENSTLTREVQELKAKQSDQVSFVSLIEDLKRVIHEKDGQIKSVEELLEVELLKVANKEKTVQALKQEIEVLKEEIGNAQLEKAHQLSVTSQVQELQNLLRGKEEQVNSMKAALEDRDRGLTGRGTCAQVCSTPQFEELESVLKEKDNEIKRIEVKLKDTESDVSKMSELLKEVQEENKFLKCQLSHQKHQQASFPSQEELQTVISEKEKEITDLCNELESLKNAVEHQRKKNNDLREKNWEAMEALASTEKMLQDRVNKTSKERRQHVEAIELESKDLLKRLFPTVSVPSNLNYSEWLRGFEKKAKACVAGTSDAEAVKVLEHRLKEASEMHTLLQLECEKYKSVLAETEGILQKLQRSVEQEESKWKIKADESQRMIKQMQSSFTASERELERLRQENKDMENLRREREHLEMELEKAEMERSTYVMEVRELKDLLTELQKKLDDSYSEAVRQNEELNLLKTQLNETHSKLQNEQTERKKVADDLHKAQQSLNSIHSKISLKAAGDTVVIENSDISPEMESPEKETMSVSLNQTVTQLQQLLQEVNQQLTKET

[6] = target: T4, AEA-DA lipid probe targets in Neuro2a cells (Mus musculus, UniProt Q8BH59)
T4 sequence (Q8BH59 1-677): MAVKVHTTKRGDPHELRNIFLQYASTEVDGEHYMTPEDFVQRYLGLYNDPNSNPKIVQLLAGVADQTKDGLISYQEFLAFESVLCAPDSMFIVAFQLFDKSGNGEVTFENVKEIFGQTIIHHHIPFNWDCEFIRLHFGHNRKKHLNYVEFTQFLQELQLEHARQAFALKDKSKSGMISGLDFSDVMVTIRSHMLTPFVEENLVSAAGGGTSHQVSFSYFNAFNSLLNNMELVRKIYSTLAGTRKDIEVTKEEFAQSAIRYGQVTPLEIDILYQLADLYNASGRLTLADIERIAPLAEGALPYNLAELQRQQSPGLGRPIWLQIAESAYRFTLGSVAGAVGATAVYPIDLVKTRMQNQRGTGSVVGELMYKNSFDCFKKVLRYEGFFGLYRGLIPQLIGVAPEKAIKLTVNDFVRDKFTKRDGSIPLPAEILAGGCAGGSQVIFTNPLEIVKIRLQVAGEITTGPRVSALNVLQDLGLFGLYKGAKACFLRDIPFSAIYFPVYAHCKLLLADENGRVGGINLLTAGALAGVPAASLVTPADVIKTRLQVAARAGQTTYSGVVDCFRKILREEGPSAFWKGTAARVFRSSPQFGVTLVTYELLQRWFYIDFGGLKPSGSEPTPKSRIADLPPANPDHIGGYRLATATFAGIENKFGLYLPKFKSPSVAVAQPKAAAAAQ

## CCCCC/C=C\C/C=C\C/C=C\C/C=C\CCCC(=O)NCCO [AEA, anandamide, reference compound]
[1]; competitor 200 μM
  SILAC ratio, Acp6: 2.5
[2]; competitor 200 μM
  SILAC ratio, Timm17b: 1.6
[3]; competitor 200 μM
  SILAC ratio, Ssr1: 1.9
[4]; competitor 200 μM
  SILAC ratio Eif3e: 1.2
[5]; competitor 200 μM
  SILAC ratio, Ktn1: 1.4
[6]; competitor 200 μM
  SILAC ratio Slc25a12: 1.1

## C=CCN(C)CCCCCCOc1ccc(C(=O)c2ccc(Br)cc2)c(F)c1 [Ro 48-8071, reference compound]
[1]; competitor 25 μM
  SILAC ratio, Acp6: 0.9
[2]; competitor 25 μM
  SILAC ratio, Timm17b: 2.8
[3]; competitor 25 μM
  SILAC ratio, Ssr1: 1.3
[4]; competitor 25 μM
  SILAC ratio Eif3e: 0.8
[5]; competitor 25 μM
  SILAC ratio, Ktn1: 0.8
[6]; competitor 25 μM
  SILAC ratio Slc25a12: 1.0

## CN1CCN(C(=O)c2c(-c3ccccc3)c3cc([N+](=O)[O-])ccc3n2C)CC1 [KML110, (1-Methyl-5-nitro-3-phenyl-1H-indol-2-yl)(4-methylpiperazin-1-yl)methanone]
[1]; competitor 25 μM
  SILAC ratio, Acp6: 1.6
[2]; competitor 25 μM
  SILAC ratio, Timm17b: 1.8
[3]; competitor 25 μM
  SILAC ratio, Ssr1: 1.7
[4]; competitor 25 μM
  SILAC ratio Eif3e: 1.4
[6]; competitor 25 μM
  SILAC ratio Slc25a12: 1.1

## O=C(/C=C/c1cccnc1)NCCCCC1CCN(C(=O)c2ccccc2)CC1 [FK-866, reference compound]
[1]; competitor 25 μM
  SILAC ratio, Acp6: 1.2
[2]; competitor 25 μM
  SILAC ratio, Timm17b: 1.2
[3]; competitor 25 μM
  SILAC ratio, Ssr1: 1.3
[4]; competitor 25 μM
  SILAC ratio Eif3e: 1.1
[5]; competitor 25 μM
  SILAC ratio, Ktn1: 1.2
[6]; competitor 25 μM
  SILAC ratio Slc25a12: 1.1

## CN1CCN(C(=O)c2[nH]c3ccc([N+](=O)[O-])cc3c2-c2ccccc2)CC1 [MJN228, (4-Methylpiperazin-1-yl)(5-nitro-3-phenyl-1H-indol-2-yl)methanone]
[1]; competitor 10 μM
  SILAC ratio, Acp6: 1.5
[1]; competitor 25 μM
  SILAC ratio, Acp6: 1.5
[1]; competitor 50 μM
  SILAC ratio, Acp6: 1.8
[1]; competitor 100 μM
  SILAC ratio, Acp6: 2.3
[2]; competitor 10 μM
  SILAC ratio, Timm17b: 1.3
[2]; competitor 25 μM
  SILAC ratio, Timm17b: 1.5
[2]; competitor 50 μM
  SILAC ratio, Timm17b: 2.2
[2]; competitor 100 μM
  SILAC ratio, Timm17b: 3.6
[3]; competitor 10 μM
  SILAC ratio, Ssr1: 1.3
[3]; competitor 25 μM
  SILAC ratio, Ssr1: 1.7
[3]; competitor 50 μM
  SILAC ratio, Ssr1: 1.8
[3]; competitor 100 μM
  SILAC ratio, Ssr1: 3.0
[4]; competitor 10 μM
  SILAC ratio Eif3e: 1.1
[4]; competitor 25 μM
  SILAC ratio Eif3e: 1.1
[4]; competitor 50 μM
  SILAC ratio Eif3e: 1.0
[4]; competitor 100 μM
  SILAC ratio Eif3e: 1.0
[5]; competitor 10 μM
  SILAC ratio, Ktn1: 1.0
[5]; competitor 25 μM
  SILAC ratio, Ktn1: 1.4
[5]; competitor 100 μM
  SILAC ratio, Ktn1: 1.2
[6]; competitor 10 μM
  SILAC ratio Slc25a12: 1.0
[6]; competitor 25 μM
  SILAC ratio Slc25a12: 1.0
[6]; competitor 50 μM
  SILAC ratio Slc25a12: 0.9
[6]; competitor 100 μM
  SILAC ratio Slc25a12: 1.0
